Measurements taken from patent publication US20240390452A1, “Protective Agent Against Endothelial Dysfunction” (THE TRUSTEES OF THE UNIVERSITY OF PENNSYLVANIA, priority 2023, published 2024).
Entries after “also recorded” stand apart in the source; their conditions may differ.

Legend:
lung oxidative injury = conditions: earlier work; cited from earlier work
[1] = tested on: NLRP3 subunit of the inflammasome; experiment: NLRP3 immunostaining in cells exposed to COVID-19 serum; format: cell-based, human; conditions: cells pre-treated 3 hrs with PIP-2, then COVID-19 serum 1 hr; anti-NLRP3 immunostaining
Protocol: (§1) Cells were pre-treated for 3 hrs with PIP-2 and then with COVID-19 serum/normal serum for an hour. Cells were then fixed and NLRP3/caspase-1 were monitored by immunostaining with anti-NLRP3 or activated caspase-1 antibody. FIG. 4A: NLRP3 immunostaining. FIG. 4B: Quantification of the fluorescent signal using Metamorph imaging software *p<0.001. FIG. 4C: Caspase-1 immunostaining. FIG. 4D: Quantification of the fluorescent signal using Metamorph imaging software *p<0.05.
(§2) HPMVEC were incubated for three hours in the incubator at 37° C. and 5% CO2 with medium supplemented with either liposomes alone or PIP-2 in liposomes (concentration 10 nM) without 10% FBS. After 3 hours of incubation, cells were either treated with serum of a healthy individual or COVID-19 patients at admission to ICU along with either liposomes alone or PIP-2 in liposomes together for one hour and three hours for ROS measurement and ICAM-1 induction respectively.

caspase-1 = experiment: Activated caspase-1 immunostaining in cells exposed to COVID-19 serum; format: cell-based, human; conditions: cells pre-treated 3 hrs with PIP-2, then COVID-19 serum 1 hr; activated caspase-1 antibody immunostaining
Protocol: as §1, §2

[2] = tested on: Human Pulmonary Microvascular Endothelial Cells (HPMVEC); format: cell-based; conditions: HPMVEC pre-treated 3 hrs with PIP-2 in liposomes (10 nM), then COVID-19 serum 1 hr; CellROX fluorescence
[3] = target: T1, phospholipase A2 (PLA2) activity of peroxiredoxin 6 (Prdx6) (Homo sapiens, UniProt P30041); conditions: earlier work / WO 2020/037146 A1; cited from earlier work
T1 sequence (P30041 1-224): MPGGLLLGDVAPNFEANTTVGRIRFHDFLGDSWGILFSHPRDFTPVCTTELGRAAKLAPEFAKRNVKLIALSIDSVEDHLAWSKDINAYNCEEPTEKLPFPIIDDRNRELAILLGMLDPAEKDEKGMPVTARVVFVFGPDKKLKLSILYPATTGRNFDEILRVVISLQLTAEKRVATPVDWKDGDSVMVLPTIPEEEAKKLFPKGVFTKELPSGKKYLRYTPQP

ICAM-1 = ICAM-1 immunostaining in HPMVEC exposed to COVID-19 serum; format: cell-based, human; conditions: HPMVEC pre-treated 3 hrs with PIP-2 in liposomes (10 nM), then COVID-19 serum; anti-ICAM immunostaining
Protocol: Primary cultures of Human Pulmonary Microvascular Endothelial Cells (HPMVEC) were grown in a T-25 culture dish and routinely maintained in Dulbecco's Modified Eagle Medium (DMEM) supplemented with 10% fetal bovine serum (FBS), 1× glutamax, 1× antibiotics, and endothelial cell growth supplement (Millipore Upstate). Cells were grown and maintained in 5% CO2 at 37° C. Once grown to the appropriate density, cells were then split and grown on coverslips in 35 mm petri dishes. Cells were then treated either with medium supplemented with 10% serum from healthy individuals or COVID-19 patients at admission to ICU and then monitored for ROS production and ICAM-1 induction as described below.
HPMVEC were incubated for one hour in the incubator at 37° C. and 5% CO2 with medium supplemented with 10% serum either from a healthy individual or from patients suffering from COVID-19. The serum replaced the FBS which was otherwise used as a supplement in DMEM. Post incubation, cells were either fixed for ICAM-1 immuno-staining or the cells were stained for ROS measurement as described below. Serum from one healthy individual and seven COVID-19 patients were used in this study.
HPMVEC were incubated for three hours in the incubator at 37° C. and 5% CO2 with medium supplemented with either liposomes alone or PIP-2 in liposomes (concentration 10 nM) without 10% FBS. […]

Row | Molecule | protection against lung oxidative injury (lung oxidative injury) | NLRP3 expression [1] | caspase 1 expression (caspase-1) | ROS production (endothelial activation) post COVID-19 serum exposure [2] | inhibition of PLA2 (aiPLA2) activity of Prdx6 [3] | ICAM-1 expression (endothelial inflammatory phenotype) (ICAM-1)
1 | CCCCCCCCCCCCCCCCOCC(COCC(F)(F)F)OP(=O)(O)OC (stereo not drawn) [MJ33] | able to protect against lung oxidative injury |  |  |  |  | 
2 | LHDFRHQIL (in liposomes) [PIP-2, tested in liposomes] |  | significantly reduced; also recorded: decreased | significantly reduced; also recorded: decreased | protected the endothelium from activation; also recorded: significant decrease; also recorded: decreased; also recorded: able to reduce the endothelial activation; also recorded: significantly reverse | specific for inhibition of aiPLA2 activity | prevented the appearance of an endothelial inflammatory phenotype; also recorded: significantly reduced; also recorded: decreased; also recorded: significantly reverse
